The source of these data is US4771070A (Warner-Lambert Company, priority 1986, dated 1988).

Data set [1] is classed as physicochemical. On the procedure:
After addition of the base solution, a white suspension formed, and some material coagulated on the walls of the solution container.
The resulting solution was concentrated to a final volume of about 2 ml on a rotary evaporator and then diluted to 40 ml with water. Two-milliliter aliquots of this solution were added to each of several 6-ml vials.
The solution was concentrated in vacuo to remove methanol and diluted to 10 ml for lyophilization. The lyophilized solid is white and powdery.

In data set [2] the test system is Proteus vulgaris. The data set can be described thus: Antimicrobial activity of CL-1957A, paper disc growth inhibition zone. The class given is cell-based. Conditions: 16 h, PD 05062, PAS medium, read-out: Diameter of Inhibition Zone. The method, then: (§1) The disc and inoculated medium were incubated for 16 hours at 37° C. and the diameter of the resulting growth inhibition zone, if any, was measured.

The test system of data set [3] is Xanthomonas phaseoli. The data set is described as above. The class given is cell-based. Conditions: 16 h, PD 06002, CMA medium, read-out: Diameter of Inhibition Zone. On the procedure: as §1
The subject of data set [4] is Bacillus subtilis. The data set is described as above. The class given is cell-based. On the procedure:
as §1

Data set [5] relates to Micrococcus luteus. Described as above. The class given is cell-based. Conditions: 16 h, PD 05064, PAS medium, read-out: Diameter of Inhibition Zone. On the procedure:
as §1

The subject of data set [6] is Branhamella catarrahalis. Described as above. Particulars: 16 h; PD 03596, CAP medium, 500 μg/ml; read-out: Diameter of Inhibition Zone. The format is cell-based. On the procedure:
as §1

In data set [7] the test system is Staphylococcus aureus. Described as above. The format is cell-based. Conditions: 16 h, read-out: Diameter of Inhibition Zone; for zone of inhibition at 10 µg/mL: 10 μg/ml; for zone of inhibition at 500 µg/mL: 500 μg/ml; for zone of inhibition at 100 µg/mL: 100 μg/ml. On the procedure: as §1
In data set [8] the test system is Alcaligenes viscolactis. The description is as above. The format is cell-based. Particulars: ATCC21698, 16 h, ATCC 21698, Mycin medium, 500 μg/ml, read-out: Diameter of Inhibition Zone. On the procedure: as §1
Data set [9] has as its system Ridgeway Osteogenic Sarcoma. The data set can be described thus: In vivo activity of CL-1957A against Ridgeway Osteogenic Sarcoma in mice. On the procedure: Male AKR mice were pooled, inoculated subcutaneously by trocar with 30-60 mg fragments of Ridgeway Osteogenic Sarcoma, repooled, and randomly distributed to treatment groups on Day 0.
Appropriate mice received intrapertioneal injections of the test compound dissolved in 0.9% sodium chloride solution on Days 2, 6, and 10, and then weekly thereafter. Tumors were measured on Days 24 and 35. The results are presented in Table XIII as % T/C (as defined below). % T/C values of less than 40 on Day 35 are considered active. [formula]

Data set [10] has as its system P388 leukemia. The experiment in a line: In vivo activity of CL-1957A against P388 leukemia in mice.
The format of data set [11] is physicochemical. Particulars: for Percent Remaining After One Week: 168 h. The method, then: The thin-film preparations which resulted were assayed for stability by comparing the purity of the film against a standard sample by HPLC techniques.
For data set [12], the system named is B16 Melanoma. The data set can be described thus: In vivo activity of CL-1957A against B16 Melanoma in mice. Conditions: ratio of median life span. The text has this:
The activity of the compound against B16 melanoma is presented in Table XIV in terms of % T/C values which represents the ratio of median life span in days of treated mice to untreated mice, expressed as a percentage.

Data set [13] concerns human colon adenocarcinoma cells. The data set can be described thus: Cytotoxicity of CL-1957A in vitro. The format is cell-based. Particulars: read-out: ID50 (the source's name). From the text:
(§2) The ID50 values appear in Table XII.

Data set [14] deals with L1210 mouse leukemia cells. The experiment in a line: Cytotoxicity of CL-1957A in vitro. Particulars: read-out: ID50 (the source's name). The format is cell-based.
Source text: as §2

Data set [15] in a line: physchem. The format is physicochemical.

SMILES strings stand for the structures. Values after ≈ are worked out from the molar mass of the structure shown. Structures can show the parent of a compound that is named as a salt. Where two headings read alike, the source gives them in different places.

Take `CCC(C=CC1OC(=O)C=CC1C)=CC(C)CC=CC(C)=CC(C)C(=O)C(C)C(O)C(C)CC(C)=CC(=O)O` (stereo not drawn) [CL-1957A triethylammonium salt]: in data set [1], the solubility in water result is on record as “soluble in water”.

For the compound `CCC(C=CC1OC(=O)C=CC1C)=CC(C)CC=CC(C)=CC(C)C(=O)C(C)C(O)C(C)CC(C)=CC(=O)O` (stereo not drawn) [CL-1957A, 19-(3,6-dihydro-3-methyl-6-oxo-2H-pyran-2-yl)-17-ethyl-6-hydroxy-3,5,7,9, 11,15-hexamethyl-8-oxo 2,10,12 16,18-nonadecapentaenoic acid], the zone of inhibition at 10 µg/mL in data set [2] (10 μg/ml) is 0 mm; in [3] (10 μg/ml), 0 mm; in data set [4] (16 h, PD 04969, #169 medium, 10 μg/ml, read-out: Diameter of Inhibition Zone) it was 0 mm; in data set [4] (ATCC6633, 16 h, read-out: Diameter of Inhibition Zone, ATCC 6633, Mycin medium, 10 μg/ml), 0 mm; in data set [5] (10 μg/ml) it was 0 mm; in data set [7] (PD 02482, PAS medium) it was 0 mm. Also, the zone of inhibition at 10 µg/mL was found to be 0 mm in data set [7] (PD 5045, AM-9 medium) and 0 mm in data set [7] (PD 5045, AM-10 medium). Moreover, the zone of inhibition at 100 µg/mL worked out at 0 mm in data set [2] (100 μg/ml); 0 mm in data set [3] (100 μg/ml); 16 mm in data set [4] (ATCC6633, 16 h, read-out: Diameter of Inhibition Zone, ATCC 6633, #169 medium, 100 μg/ml); 0 mm in data set [4] (ATCC6633, 16 h, read-out: Diameter of Inhibition Zone, ATCC 6633, Mycin medium, 100 μg/ml); 0 mm in [5] (100 μg/ml); 17 mm in data set [7] (PD 5045, AM-9 medium). For the same compound, the zone of inhibition at 100 µg/mL in data set [7] (PD 5045, AM-10 medium) stood at 19 mm. Moreover, the zone of inhibition at 500 µg/mL in data set [2] (500 μg/ml) worked out at 0 mm; in data set [3] (500 μg/ml), 0 mm; in data set [6] it was 30 mm; in data set [7] (PD 02482, PAS medium), 16 mm; in data set [7] (PD 5045, AM-9 medium), 22 mm; in [7] (PD 5045, AM-10 medium), 22 mm. Further, in data set [8], the zone of inhibition at 500 µg/mL was determined as 19 mm. Besides, the “% T/C” value is given as 14% in data set [9] (0.125 mg/kg/injection i.p. Days 2, 6, 10, then weekly, Day 24); 22% in data set [9] (0.125 mg/kg/injection i.p. Days 2, 6, 10, then weekly, Day 35, less than 40 considered active); 15% in [9] (0.25 mg/kg/injection i.p. Days 2, 6, 10, then weekly, Day 24); 9% in [9] (0.25 mg/kg/injection i.p. Days 2, 6, 10, then weekly, Day 35, less than 40 considered active); 0% in data set [9] (0.50 mg/kg/injection i.p. Days 2, 6, 10, then weekly, Day 24); 0% in data set [9] (0.50 mg/kg/injection i.p. Days 2, 6, 10, then weekly, Day 35, less than 40 considered active). Besides, the “% T/C” value in [10] (12.5 μg/kg/injection, Days 1-5, Test 1) is listed as 118%; in data set [10] (25 μg/kg/injection, Days 1-5, Test 1), 127%; in [10] (100 μg/kg/injection, Days 1-5, Test 1), “Toxic”; in [10] (100 μg/kg/injection, Days 1-5, Test 2) it was “Toxic”; in data set [12] (0.075 mg/kg/injection i.p. Days 1, 5, 9), 201%; in data set [12] (0.60 mg/kg/injection i.p. Days 1, 5, 9) it was “Toxic”. Besides, in data set [11], the “stability of ascorbate-containing thin-film preparation” value is listed as “began to show some decomposition”. Moreover, the “stability of solid preparations of the pure compound” value in data set [11] is reported as “insufficiently stable for pharmaceutical use”. Moreover, in [11], the “stability of thin-film preparations” value was “not stable for periods of even one week”. For the same compound, the “Percent Remaining After One Week” value in data set [11] (solid cake from 1,1-dimethylethanol) stood at 56%; in [11] (thin film from 95% ethanol), 40%; in data set [11] (thin film from abs. ethanol), 60%. Further, the IC50 was 0.02 ng/mL (≈ 0.037 nM) in data set [13] and 0.118 ng/mL (≈ 0.218 nM) in data set [14]. Also, the share remaining (usually what is left of the initial amount, in per cent) at 730 h in data set [15] (95% ethanol) is 100%; in data set [15] (absolute ethanol) it was 100%; in data set [15] (dimethylacetamide), 95%; in [15] (dimethylsulfoxide), 93%; in data set [15] (propylene glycol) it was 100%. For the same compound, the share remaining at 3650 h in [15] (95% ethanol), in data set [15] (abs. ethanol) and in data set [15] (propylene glycol) was 100% throughout.

On to `CCC(C=CC1OC(=O)C=CC1C)=CC(C)CC=CC(C)=CC(C)C(=O)C(C)C(O)C(C)CC(C)=CC(=O)O` [N-methyl-D-glucamine salt], for which the solubility in water entry in data set [1] is listed as “soluble in water”.

Take `CCC(C=CC1OC(=O)C=CC1C)=CC(C)CC=CC(C)=CC(C)C(=O)C(C)C(O)C(C)CC(C)=CC(=O)O` (stereo not drawn) [calcium salt of CL-1957A]: in data set [1], the solubility in ethanol result is “soluble in ethanol” and the solubility in water result is “insoluble in water”.
